Experimental data: patent publication US20030204875A1, “Novel agrobacterium-mediated plant transformation method” (priority 1999, published 2003)
Where two headings read alike, the source gives them in different places.

Legend:
[1] = tested on: Agrobacterium (strain ABI); type: cell-based; design: key: “No Growth” indicates there was not an increase in cell density indicating bacteriocidal or bacteriostatic property of the chemical; “Slow Growth” indicates that a slight increase in cell density was noticed and a higher level may be lethal; “Growth” indicates no effect on bacterial growth at the concentration used relative to growth in control medium; conditions: twenty-four hours
Description: Each of the chemicals listed in Table 26 was resuspended in MS-BMS media and added (final concentration 50 μM) to a 50 ml overnight culture of Agrobacterium (strain ABI). Twenty-four hours after inoculation the effect of the chemicals on the growth of Agrobacterium was recorded. A known bacteriocidal compound, Carbenicillin at a final concentration of 50 mg/L and AgNO3 (20 μM) were used as controls.

[2] = tested on: immature embryos of genotype (H99×Pa 91)A188; assay: Transformation efficiency of corn with different growth inhibiting agents during co-culture; type: cell-based; conditions: 50 mg/L in co-culture medium, three days; OD 4.0
Description: b) Biological assay (leaf bleach assay). Leaf samples (a leaf punch) from approximately 2-week-old seedlings were placed in wells of 24-well cell culture clusters (Costar Corporation, Cambridge, Mass.). Each well was filled with 0.5 ml aqueous solution composed of 300 mg/L paromomycin (Sigma) and 100 mg/L Benlate (a fungicide made by Du Pont), 100 mg/IL Benlate alone was used as a control. Three leaf samples from the same leaf of each plant were placed in two wells containing paromomycin plus Benlate and one well containing Benlate alone, respectively. Leaf samples from non-transformed plants were used as negative controls. The samples were vacuum-infiltrated in a dessicator using an in-house vacuum system for 5 min and then the clusters were sealed tightly with parafilm before being placed under light (140 μMol m-2s-1). The results were determined after 60 hours.
Immature embryos of genotype (H99×Pa 91)A188 were isolated as described. […] The Agrobacterium strain was pre-induced as described. The inoculation was performed using a concentration of A660 OD 4.0 for 15 minutes as described. Post inoculation, Agrobacterium suspension was removed and embryos were placed on different semi-solid co-culture media supplemented with various bacteriocidal compounds. All the tissues were incubated for three days in the dark. The transformation protocol followed was as described previously (corn IE transformation) except that the 1st selection with 50 mg/L Paromomycin was replaced with 25 mg/L Paromomycin for 2 weeks and 50 mg/L Paromomycin for 2 additional weeks. Transformation efficiency was calculated based on the number of embryos producing nptII positive plants as determined by a leaf bleach assay as described earlier. Three weeks after the transformation, the quality and growth characteristics of IE-derived callus co-cultured in the presence of different growth inhibiting agents.

[3] = final concentration 50 μM in MS-BMS media

Compound	Effect (on growth of Agrobacterium) [1, 3]	Effect (on growth of Agrobacterium) ([1]; control, final concentration 50 mg/L)	% Transformation [2]
[Na+].[Na+].[O]=[W](=[O])([O-])[O-] [Sodium Tungstate]	Growth		
[Cl][Cd][Cl] [Cadmium Chloride]	Slow Growth		
Lead Nitrate	Growth		
[Cl][Al]([Cl])[Cl] [Aluminum Chloride]	Growth		
[Cl][Cr][Cl] [Chromium (II) Chloride]	Growth		
CC1(C)S[C@@H]2[C@H](NC(=O)C(C(=O)O)c3ccccc3)C(=O)N2[C@H]1C(=O)O (some centres unmarked) [Carbenicillin, reference compound]		No Growth	14.3%
[Cl-].[Cl-].[Zn+2] [Zinc Chloride]	Growth		
Manganese Chloride	Slow Growth		
[Na+].[Na+].[O]=[Mo](=[O])([O-])[O-] [Sodium Molybdate]	Growth		
[Cl][Ni][Cl] [Nickel Chloride]	Growth		
